What follows are compounds tested against 5-HT2A receptors (Rattus norvegicus, UniProt P14842) (assay: in-vitro affinity to 5-HT2A receptors, displacement of [3H]ketanserine (Example A1)). Conditions: read-out: HT2A IC50.
Format: binding
Excerpt: The 5-HT2A receptors are exposed both to [^3H]ketanserine (a substance which is known for its affinity to the receptor) and also to the test compound. The decrease in the affinity of [^3H]ketanserine to the receptor is an indication of the affinity of the test substance to the 5-HT2A receptor.

Sequence of 5-HT2A receptors (P14842 whole entry): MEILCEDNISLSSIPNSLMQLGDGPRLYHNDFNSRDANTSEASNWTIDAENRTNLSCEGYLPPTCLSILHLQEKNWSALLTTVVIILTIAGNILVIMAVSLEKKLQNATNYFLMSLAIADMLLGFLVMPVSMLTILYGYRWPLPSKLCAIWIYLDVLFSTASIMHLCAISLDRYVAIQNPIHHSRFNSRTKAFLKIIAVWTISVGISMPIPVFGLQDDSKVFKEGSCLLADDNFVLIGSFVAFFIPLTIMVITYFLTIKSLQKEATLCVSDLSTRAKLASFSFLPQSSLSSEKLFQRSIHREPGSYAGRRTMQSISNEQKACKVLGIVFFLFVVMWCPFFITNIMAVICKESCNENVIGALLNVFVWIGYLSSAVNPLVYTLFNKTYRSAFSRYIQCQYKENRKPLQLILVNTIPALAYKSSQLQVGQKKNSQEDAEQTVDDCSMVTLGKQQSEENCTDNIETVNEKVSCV

IC50 | Compound
130 nM | N#CC(NCc1cnn(-c2ccc(-c3ccccc3)cc2)c1-c1ccccc1F)C(N)=O (centres unmarked) [Example 987, 2-{[1-Biphenyl-4-yl-5-(2-fluorophenyl)-1H-pyrazol-4-ylmethyl]amino}-2-cyanoacetamide]
370 nM | Cc1cnc(NCc2cnn(-c3ccc(-c4ccccc4)cc3)c2-c2ccccc2F)s1 [Example 1046, [1-Biphenyl-4-yl-5-(2-fluorophenyl)-1H-pyrazol-4-ylmethyl]-(5-methylthiazol-2-yl)amine]
100 nM | O=C(CNCc1cnn(-c2ccc(-c3ccccc3)cc2)c1-c1ccccc1F)Nc1ccc([N+](=O)[O-])cc1 [Example 980, 2-{[1-Biphenyl-4-yl-5-(2-fluorophenyl)-1H-pyrazol-4-ylmethyl]amino}-N-(4-nitrophenyl)-acetamide]
35 nM | CCN1CCN(Cc2cnn(-c3ccc(-c4ccc(F)cc4)cc3)c2-c2cccc(OC)c2)CC1 [Example 938, 1-Ethyl-4-[1-(4′-fluorobiphenyl-4-yl)-5-(3-methoxyphenyl)-1H-pyrazol-4-ylmethyl]-piperazine]
140 nM | CN1CCN(Cc2cnn(-c3ccc(-c4cccc(C#N)c4)cc3)c2-c2ccccc2F)CC1 [Example 993, 4′-[5-(2-Fluorophenyl)-4-(4-methylpiperazin-1-ylmethyl)pyrazol-1-yl]biphenyl-3-carbonitrile]
87 nM | CN1CCN(NCc2cnn(-c3ccc(-c4ccc(F)cc4)cc3)c2-c2ccccc2)CC1 [Example 974, [1-(4′-Fluorobiphenyl-4-yl)-5-phenyl-1H-pyrazol-4-ylmethyl]-(4-methyl-piperazin-1-yl)amine]
430 nM | OC1CCN(Cc2cnn(-c3ccc(-c4ccccc4)cc3)c2-c2ccccc2F)CC1 [Example 1053, 1-[1-Biphenyl-4-yl-5-(2-fluorophenyl)-1H-pyrazol-4-ylmethyl]piperidin-4-ol]
170 nM | Fc1ccccc1-c1c(CN2CC=CCC2)cnn1-c1ccc(-c2ccccc2)cc1 [Example 998, 1-[1-Biphenyl-4-yl-5-(2-fluorophenyl)-1H-pyrazol-4-ylmethyl]-1,2,3,6-tetrahydro-pyridine]
210 nM | COC(=O)CCNCc1cnn(-c2ccc(-c3ccccc3)cc2)c1-c1ccccc1F [Example 1014, Methyl 3-{[1-biphenyl-4-yl-5-(2-fluoro-phenyl)-1H-pyrazol-4-ylmethyl]amino}propionate]

Same assay, conditions: target not given; description names affinity to 5-HT2A receptors; read-out: IC50

Compound | IC50
Fc1ccccc1-c1c(CN2CCNCC2)cnn1-c1ccc(-c2ccccc2)nc1 [(56), 1-[5-(2-Fluorophenyl)-1-(6-phenylpyridin-3-yl)-1H-pyrazol-4-ylmethyl]piperazine] | 150 nM
O=S1(=O)CCN(Cc2cnn(-c3ccc(-c4ccccc4)cc3)c2-c2ccccc2F)CC1 [(108), 4-[1-Biphenyl-4-yl-5-(2-fluorophenyl)-1H-pyrazol-4-ylmethyl]-thiomorpholine 1,1-dioxide] | 43 nM
Fc1ccccc1-c1c(CNCCCn2ccnc2)cnn1-c1ccc(-c2ccccc2)cc1 [(152), [1-Biphenyl-4-yl-5-(2-fluorophenyl)-1H-pyrazol-4-ylmethyl]-(3-imidazol-1-ylpropyl)amine] | 130 nM
Fc1ccccc1-c1c(CN2CCN(Cc3ccncc3)CC2)cnn1-c1ccc(-c2ccccc2)cc1 [(184), 1-[1-Biphenyl-4-yl-5-(2-fluorophenyl)-1H-pyrazol-4-ylmethyl]-4-pyridin-4-ylmethylpiperazine] | 75 nM
CN(CC(=O)OC(C)(C)C)Cc1cnn(-c2ccc(-c3ccccc3)cc2)c1-c1cccnc1 [(180), tert-Butyl [(1-biphenyl-4-yl-5-pyridin-3-yl-1H-pyrazol-4-ylmethyl)methylamino]acetate] | 920 nM
Fc1ccccc1-c1c(CN2CCNCC2)cnn1-c1ccc(C(F)(F)F)cc1 [(86), 1-[5-(2-Fluorophenyl)-1-(4-trifluoromethylphenyl)-1H-pyrazol-4-ylmethyl]piperazine] | 43 nM
COCCN(C)Cc1cnn(-c2ccc(-c3cc(F)ccc3F)nc2)c1-c1ccccc1F [(159), [1-[6-(2,5-Difluorophenyl)pyridin-3-yl]-5-(2-fluorophenyl)-1H-pyrazol-4-ylmethyl]-(2-methoxyethyl)-methylamine] | 1400 nM
O=C1NOCC1NCc1cnn(-c2ccc(-c3ccccc3)cc2)c1-c1ccccc1F (centres unmarked) [(131), 4-{[1-Biphenyl-4-yl-5-(2-fluorophenyl)-1H-pyrazol-4-ylmethyl]-amino}isoxazolidin-3-one] | 6000 nM
CC(C)(C)OC(=O)N1CCN(Cc2cnn(-c3ccc(C(F)(F)F)cc3)c2-c2ccccc2F)CC1 [(84), tert-Butyl 4-[5-(2-fluorophenyl)-1-(4-trifluoromethyl-phenyl)-1H-pyrazol-4-ylmethyl]piperazine-1-carboxylate] | 8 nM
COc1ccccc1-c1c(CN2CCN(C)CC2)cnn1-c1ccc(-c2cc(F)ccc2F)cc1 [(71), 1-[1-(2′,5′-Difluorobiphenyl-4-yl)-5-(2-methoxyphenyl)-1H-pyrazol-4-ylmethyl]-4-methylpiperazine] | 77 nM
COc1ccccc1-c1c(CN2CCN(C)CC2)cnn1-c1ccc(-c2ccsc2)cc1 [(105), 1-[5-(2-Methoxyphenyl)-1-(4-thiophen-3-ylphenyl)-1H-pyrazol-4-ylmethyl]-4-methylpiperazine] | 460 nM
CN1CCN(Cc2cnn(-c3ccc(-c4cc(F)ccc4F)cc3)c2-c2ccccc2F)CC1 [(65), 1-[1-(2′,5′-Difluorobiphenyl-4-yl)-5-(2-fluorophenyl)-1H-pyrazol-4-ylmethyl]-4-methylpiperazine] | 55 nM
CN1CCN(C(=O)c2cnn(-c3ccc(-c4ccccc4)cc3)c2-c2ccccc2F)CC1 [(52), 1-[1-Biphenyl-4-yl-5-(2-fluorophenyl)-1H-pyrazol-4-yl]-1-(4-methylpiperazin-1-yl)methanone] | 820 nM
CNC(=O)CNCc1cnn(-c2ccc(-c3ccccc3)cc2)c1-c1ccccc1F [(130), 2-{[1-Biphenyl-4-yl-5-(2-fluorophenyl)-1H-pyrazol-4-ylmethyl]-amino}-N-methylacetamide] | 600 nM
CN(CCO)Cc1cnn(-c2ccc(-c3ccccc3)cc2)c1-c1ccccc1F [(92), 2-{[1-Biphenyl-4-yl-5-(2-fluorophenyl)-1H-pyrazol-4-ylmethyl]-methylamino}ethanol] | 16 nM
CCN1CCN(Cc2cnn(-c3ccc(-c4ccccc4)cc3)c2-c2ccccc2F)CC1 [(90), 1-[1-Biphenyl-4-yl-5-(2-fluorophenyl)-1H-pyrazol-4-ylmethyl]-4-ethylpiperazine] | 28 nM
OC1CC2CCC(C1)N2Cc1cnn(-c2ccc(-c3ccccc3)cc2)c1-c1ccccc1F (centres unmarked) [(83), 8-[1-Biphenyl-4-yl-5-(2-fluorophenyl)-1H-pyrazol-4-ylmethyl]-8-azabicyclo[3.2.1]octan-3-ol] | 1100 nM
CN1CCN(Cc2cnn(-c3ccc(-c4ccsc4)cc3)c2-c2ccccc2)CC1 [(98), 1-Methyl-4-[5-phenyl-1-(4-thiophen-3-ylphenyl)-1H-pyrazol-4-ylmethyl]piperazine] | 31 nM
Fc1ccccc1-c1c(CNCCc2c[nH]cn2)cnn1-c1ccc(-c2ccccc2)cc1 [(154), [1-Biphenyl-4-yl-5-(2-fluorophenyl)-1H-pyrazol-4-ylmethyl]-[2-(1H-imidazol-4-yl)ethyl]amine] | 170 nM
CN1CCN(Cc2cnn(-c3ccc(-c4cccnc4)cc3)c2-c2ccccc2F)CC1 [(120), 1-[5-(2-Fluorophenyl)-1-(4-pyridin-3-ylphenyl)-1H-pyrazol-4-ylmethyl]-4-methylpiperazine] | 170 nM

Reference: patent US20060264419A1 (priority 2003, published 2006)
